According to patent publication US20210137854A1, “TAAR Receptor Agonists for the Treatment of Alopecia” (APPLIED BIOLOGY, INC., priority 2018, published 2021):

Tests used:
Format in all cases: in vivo, human
scalp hair follicles [1] = assay: Epilation force threshold for plucking scalp hair (trichotillometer)
Protocol: To evaluate the effect of a topically applied TAAR agonist combination on the force required to pluck hairs from the scalp, a hand-held spring dynamometer, or “trichotillometer” was used. The trichotillometer records the maximum force threshold, in grams, required to pluck a single hair from the scalp; the performance and statistical variance of the instrument have been reported previously. […] The frontal area of scalp was divided into two 8×10 cm^2 areas. On the right side 0.5 mL of a placebo vehicle was applied. On the left side, 0.5 mL a 12% tyramine solution was applied. After 45 minutes, ten hairs were plucked from each of the target areas with the trichotillometer.

scalp hair follicles [2] = assay: Hair shedding during brushing after topical solution versus placebo
Source text: Participants included in the study were female subjects between ages of 18 and 60 who frequently use traumatic hair care practices, such as tight braids, head scarves, ponytails, extensions, hair rollers, hair weaves and heated styling appliances such as blow dryers, flat irons, heat setters and curling irons. Excluded subjects were those who experienced uncontrolled hypertension, those who were pregnant or breastfeeding, those who were diagnosed with pattern hair loss, or those who experienced other hair loss in conjunction with female pattern hair loss. Overall, fifteen female subjects, aged 24 to 40 years, participated in the study.
On day 1, subjects were instructed to wash their hair. On day 2, subjects were instructed to apply 1 mL of placebo solution containing vehicle and brush targeted area after 30 minutes. Brushing was conducted to frontal hair with regular brush in size of 8×10 cm^2. On day 3, subjects were instructed again to wash their hair. On day 4, subjects were instructed to apply 1 mL of 10% m-octopamine hydrochloride solution on targeted area and brush after 30 minutes.
The study was conducted over 4 days. On day 1, subjects were instructed to wash their hair. […]
Hair Shedding: To measure hair loss during cosmetic procedures, a 4-day protocol was designed. […] After each clinical procedure, the investigator counted the hairs collected on each brush. […]

[3] = Cardiac or hemodynamic changes during topical α1-AR agonist studies; settings: subjects sampled during both studies
Source text: It is recognized that […] of the α1 adrenergic receptor (α1-AR), a G-protein coupled receptor, expressed on the arrector pili muscle.

## CNC[C@H](O)c1cccc(O)c1 [phenylephrine]
Scalp hair follicles [1]; following topical application, Examples 5 and 6, FIGS. 4-5
  increase in epilatory force threshold for plucking hair follicles: 172%
Scalp hair follicles [1]; pilot study of 15 female subjects
  increase in average threshold of force required to pluck hair: 172%
Scalp hair follicles [2]; Examples 7 and 9, blinded study, female subjects ages 18-40
  subjects with reduced shedding compared to days using placebo solution: 80%
Scalp hair follicles [2]; earlier studies of the inventors, phenylephrine 15 female subjects, AB-102 cohort of 40 women
  reduction in hairs lost (shedding) during brushing: 40%
[3]
  cardiac or hemodynamic changes: no cardiac or hemodynamic changes were observed
